In paper PMC8344022, “Small-molecule inhibitor of AF9/ENL-DOT1L/AF4/AFF4 interactions suppresses malignant gene expression and tumor growth” (Theranostics, 2021):
Several values for one entry are separate records, joined by “and”; a condition that tells them apart may be missing. Equal values may be shown once. Read-outs that look alike come from different tables or passages of the source.

How the values were obtained:
ENL-AF4 interaction = target: T1, ENL-AF4 interaction (Homo sapiens, UniProt Q03111); assay: Alpha assay, ENL-AF4 interaction; assay type: binding; details: read-out: IC50, inhibition of ENL-AF4 interaction
T1 construct: ENL AHD domain (489-559) was synthesized (by Genscript) and inserted into the pMAL c5X expression plasmid; made in house; host or cells: E. coli BL21(DE3)
T1 sequence (Q03111 489-559): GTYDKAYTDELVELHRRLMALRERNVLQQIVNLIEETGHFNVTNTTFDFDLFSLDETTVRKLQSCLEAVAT
Procedure: ENL is also a major MLL fusion partner (~10%). The AHD domains of human ENL and AF9 share a high homology with 82% identity and 89% similarity (Figure S1A). […] Our attempts to develop an Alpha assay for ENL-DOT1L failed. […] Compound 1's activity against ENL-DOT1L was therefore not determined.
(§1) Alpha assays. Alpha assays were developed using Perkin-Elmer AlphaLisa anti-MBP kit, which contains streptavidin donor beads and anti-MBP acceptor beads. The assay was performed using a MBP-protein (5 nM), a biotinylated peptide (40 nM), and increasing concentrations of a compound in 25 µL buffer (PBS with 0.5 % BSA, pH 7.5) in 384-well plates according to the manufacturer's protocol and measured with a Tecan SPARK microplate reader. Data were imported into Prism (version 5.0), and IC50 values from 3 independent experiments with standard deviation were obtained by using a standard dose-response curve fitting.

AF9-DOT1L interaction = target: T2, AF9-DOT1L interaction (Homo sapiens, UniProt P42568); assay: Fluorescence polarization (FP) inhibition assay, AF9-DOT1L; assay type: binding
T2 construct: cDNA for human AF9 AHD domain (475-568) and ENL AHD domain (489-559) was synthesized; made in house; host or cells: E. coli BL21(DE3)
T2 sequence (P42568 475-568): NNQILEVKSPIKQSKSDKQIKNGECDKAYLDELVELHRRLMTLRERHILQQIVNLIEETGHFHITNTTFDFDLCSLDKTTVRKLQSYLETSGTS
Description: We developed an Alpha (amplified luminescent proximity homogeneous assay) assay to determine the binding and inhibition of the PPI between maltose-binding protein (MBP)-tagged AF9 AHD and a biotin-labeled DOT1L peptide, using AlphaLisa streptavidin donor beads and anti-MBP acceptor beads. Laser excitation to the donor beads generates singlet oxygen radicals, which can travel for <200 nm in solution and cannot reach the free acceptor beads. The PPI brings the DOT1L coated donor beads and AHD coated acceptor beads together, allowing the radicals to activate the acceptor beads and produce luminescence. […] We also developed a fluorescence polarization (FP) assay. A fluorescein-labeled DOT1L peptide has a higher freedom in solution with a lower polarization value.
(§2) Fluorescence polarization assay. It was performed in 96-well black microplates with each well containing a Fluorescein-labeled peptide (2 nM) and increasing concentration of a AF9/ENL protein in a buffer (20 mM HEPES, pH 7.5, 0.01% Triton X-100, 100 µL) for Kd determination. For IC50 determination, a Fluorescein-labeled peptide (2 nM), AF9/ENL protein (100 nM) and increasing concentration of a compound in the same buffer were placed in each well. Upon incubation of 1h, the FP value of each well was determined using a Tecan SPARK microplate reader. Data were similarly processed to obtain Kd or IC50 values.

[1] = test system: AF9/ENL-DOT1L/AF4/AFF4 interactions; assay: Biochemical assays of PPIs between AF9/ENL and DOT1L/AF4/AFF4 (overall); assay type: binding, human; details: for IC50: range over the PPIs tested, read-out: IC50s against AF9/ENL-DOT1L/AF4/AFF4 interactions (range over PPIs)
Procedure: Because both FP and Alpha assays are unsuitable for studies of AF9/ENL binding kinetics, we compared the IC50s of the inhibitor with the Kds of the PPIs (Table 1).
as §1, §2

p300 = p300 (Homo sapiens, UniProt Q09472); assay: p300 histone acetyltransferase inhibition; assay type: biochemical; details: at 100 µM (Figure S3: 30 or 100 µM)
p300, sequence (Q09472 whole entry, species assumed): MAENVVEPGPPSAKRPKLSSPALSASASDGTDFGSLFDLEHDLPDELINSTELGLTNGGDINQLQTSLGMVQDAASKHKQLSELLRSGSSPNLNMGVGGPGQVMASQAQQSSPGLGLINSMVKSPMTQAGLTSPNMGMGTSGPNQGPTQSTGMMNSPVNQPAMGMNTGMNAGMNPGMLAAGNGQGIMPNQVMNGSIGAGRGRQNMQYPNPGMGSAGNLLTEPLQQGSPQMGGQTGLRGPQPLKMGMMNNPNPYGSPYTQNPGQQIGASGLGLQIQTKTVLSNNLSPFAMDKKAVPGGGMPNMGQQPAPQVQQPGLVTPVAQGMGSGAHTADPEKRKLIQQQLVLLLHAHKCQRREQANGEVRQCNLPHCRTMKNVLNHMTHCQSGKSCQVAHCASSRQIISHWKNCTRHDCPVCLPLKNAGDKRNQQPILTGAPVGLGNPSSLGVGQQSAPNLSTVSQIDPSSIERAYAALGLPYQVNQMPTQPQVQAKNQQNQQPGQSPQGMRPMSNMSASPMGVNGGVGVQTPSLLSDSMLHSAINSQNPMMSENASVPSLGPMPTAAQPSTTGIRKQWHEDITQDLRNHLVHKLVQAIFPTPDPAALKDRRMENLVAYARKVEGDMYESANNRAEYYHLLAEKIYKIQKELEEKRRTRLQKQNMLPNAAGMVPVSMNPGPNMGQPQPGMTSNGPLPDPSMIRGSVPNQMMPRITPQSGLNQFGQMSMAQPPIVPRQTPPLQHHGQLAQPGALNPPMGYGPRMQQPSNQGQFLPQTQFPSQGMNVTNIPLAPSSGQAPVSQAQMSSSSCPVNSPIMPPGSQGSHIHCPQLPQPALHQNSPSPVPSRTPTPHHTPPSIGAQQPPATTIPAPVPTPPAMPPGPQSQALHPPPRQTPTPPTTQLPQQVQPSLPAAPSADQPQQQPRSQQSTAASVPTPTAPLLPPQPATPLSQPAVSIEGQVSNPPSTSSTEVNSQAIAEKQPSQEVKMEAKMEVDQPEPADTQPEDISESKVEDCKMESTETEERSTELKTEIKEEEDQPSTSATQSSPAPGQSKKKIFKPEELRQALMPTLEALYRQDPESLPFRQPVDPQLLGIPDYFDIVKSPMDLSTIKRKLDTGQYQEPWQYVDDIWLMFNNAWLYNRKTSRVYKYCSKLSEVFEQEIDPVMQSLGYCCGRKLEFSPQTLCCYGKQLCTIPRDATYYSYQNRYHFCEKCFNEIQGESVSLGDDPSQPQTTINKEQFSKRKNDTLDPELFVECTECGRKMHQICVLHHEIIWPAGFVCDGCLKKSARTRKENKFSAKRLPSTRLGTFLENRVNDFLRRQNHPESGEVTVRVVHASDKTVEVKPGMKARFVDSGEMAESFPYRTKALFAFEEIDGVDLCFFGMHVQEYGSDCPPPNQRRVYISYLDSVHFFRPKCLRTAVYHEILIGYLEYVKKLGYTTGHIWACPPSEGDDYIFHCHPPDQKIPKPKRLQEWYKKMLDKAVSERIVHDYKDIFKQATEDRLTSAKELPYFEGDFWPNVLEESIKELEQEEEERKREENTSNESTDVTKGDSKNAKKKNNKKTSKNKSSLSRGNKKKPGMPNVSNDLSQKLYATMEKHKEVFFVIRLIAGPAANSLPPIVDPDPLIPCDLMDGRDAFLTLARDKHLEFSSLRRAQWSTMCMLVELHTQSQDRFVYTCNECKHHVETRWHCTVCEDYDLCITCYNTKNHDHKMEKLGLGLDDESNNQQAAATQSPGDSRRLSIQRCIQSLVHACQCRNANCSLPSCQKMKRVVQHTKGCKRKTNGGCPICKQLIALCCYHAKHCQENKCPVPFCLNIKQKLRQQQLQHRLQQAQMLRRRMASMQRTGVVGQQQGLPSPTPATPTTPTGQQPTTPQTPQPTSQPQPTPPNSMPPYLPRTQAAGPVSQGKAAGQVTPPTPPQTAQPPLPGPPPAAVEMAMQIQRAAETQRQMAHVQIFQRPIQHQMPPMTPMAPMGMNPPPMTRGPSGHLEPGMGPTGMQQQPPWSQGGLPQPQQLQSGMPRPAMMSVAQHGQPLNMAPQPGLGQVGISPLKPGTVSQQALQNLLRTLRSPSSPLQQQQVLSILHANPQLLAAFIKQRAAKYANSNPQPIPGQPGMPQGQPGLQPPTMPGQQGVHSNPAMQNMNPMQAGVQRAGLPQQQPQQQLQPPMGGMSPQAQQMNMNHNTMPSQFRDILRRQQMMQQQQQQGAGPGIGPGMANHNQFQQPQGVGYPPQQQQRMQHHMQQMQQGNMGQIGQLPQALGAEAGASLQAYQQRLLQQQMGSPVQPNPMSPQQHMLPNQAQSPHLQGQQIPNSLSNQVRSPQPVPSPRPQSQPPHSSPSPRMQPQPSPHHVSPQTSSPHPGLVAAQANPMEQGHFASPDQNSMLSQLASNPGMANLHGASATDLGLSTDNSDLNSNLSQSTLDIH
Procedure: Inhibition of DOT1L, LSD1 and p300 was performed using our previously reported methods, [37], [38].
LSD1, and p300 histone acetyltransferase at 30 or 100 µM, using our previous reported methods [Ref. 36, 37,
(§3) (1 picture or pasted object on this page, not shown here)

[2] = test system: nuclear protein levels in MV4;11 cells; assay: Western blot of nuclear proteins; assay type: cell-based
Procedure: Western blot. 3x10^6 cells/well were treated with increasing concentrations of a compound for 3 days and nuclear proteins extracted with the EpiQuik Nuclear Extraction Kit (Epigentek) according to the manufacturer's protocol. Equal amounts of proteins were separated on SDS-PAGE and transferred to PVDF membranes. The blots were probed with primary antibodies, followed by anti-rabbit or anti-mouse IgG (Thermo Scientific) secondary antibodies. The primary antibodies used in this research were MBP Mouse mAb (#2396, Cell signaling), DOT1L Rabbit mAb (#77087, Cell signaling), MLL-N Rabbit mAb (#14689, Cell signaling), ENL Rabbit mAb (#14893, Cell signaling), Di-Methyl-Histone H3K79 Rabbit mAb (#5427, Cell signaling), Mono-Methyl-Histone H3K79 Rabbit mAb (#9398, Cell signaling), Histone H3 Rabbit mAb (#4499, Cell signaling), AF4 Rabbit pAb (#NBP1-28705, Novusbio) and AFF4 Rabbit pAb (#ab103586, Abcam).

[3] = test system: cytoplasmic protein levels in MV4;11 cells; assay: Western blot of cytoplasmic proteins; assay type: cell-based; details: 3 days, except for ENL at 15 µM
Procedure: (§4) Figure S4. The cytoplasmic protein levels after treatment with Cpd-1 for 3 days. (A) In contrast to the protein
(§5) me2, ENL and AFF4 in MV4;11 cells, except for ENL at 15 µM.
as §3

[4] = test system: cytoplasmic protein levels in Molm-13 cells; assay: Western blot of cytoplasmic proteins; assay type: cell-based; details: 3 days
Procedure: as §4, §5, §3

Molm-13 cells [5] = assay: Annexin V apoptosis assay (flow cytometry); assay type: cell-based
Procedure: (§6) Compound 1 (5 μM for 5 days) induced significant differentiation, with more cell populations expressing CD14 and CD11b, two cell surface proteins for macrophages/monocytes (Figure 5B).
Flow cytometry. […] Apoptosis was determined using the FITC Annexin V Apoptosis Detection Kit I (BD Bioscience) using the manufacturer's protocol. For other FACS assays, cells were labeled with fluorochrome-conjugated monoclonal antibodies against human CD14 and CD11b (BD Biosciences) according to the manufacturer's recommendation. Cells were analyzed using a FACS Calibur (BD Biosciences/Applied Biosystems) and data were processed using the program Flowjo (version7.6.5).

Molm-13 cells [6] = assay: Flow cytometry for CD14 and CD11b (differentiation); assay type: cell-based, human; details: 5 μM for 5 days
Procedure: as §6
Flow cytometry. For Annexin V apoptosis assay, 10^5 cells/ml were incubated with increasing concentrations of a compound for 5 days. Apoptosis was determined using the FITC Annexin V Apoptosis Detection Kit I (BD Bioscience) using the manufacturer's protocol. For other FACS assays, cells were labeled with fluorochrome-conjugated monoclonal antibodies against human CD14 and CD11b (BD Biosciences) according to the manufacturer's recommendation. Cells were analyzed using a FACS Calibur (BD Biosciences/Applied Biosystems) and data were processed using the program Flowjo (version7.6.5).

## CC(C)(C)c1ccc(-n2cc(C(=O)NC3CCNCC3)nc2-c2ccccc2)cc1 [Compound 1]
ENL-AF4 interaction
  IC50: 900 nM and 940 nM
AF9-DOT1L interaction
  IC50: 3200 nM
[1]; comparison of IC50s with Kds of the PPIs
  Mode of inhibition: non-competitive mode of inhibition
[1]; listed as Compound-1
  IC50: 900 to 3500 nM
[1]
  IC50: 940 to 3500 nM
p300
  Inhibition of p300 histone acetyltransferase activity: did not significantly inhibit
[2]; 10 μM
  Nuclear level of AFF4: did not cause significantly decreased AFF4
[2]; 3 days
  Nuclear protein levels of H3K79me1 and me2 and ENL: reduced the nuclear protein levels of H3K79me1 and me2 and ENL
[3]
  Cytoplasmic protein levels of H3K79me1 and me2, ENL and AFF4: did not significantly reduce
[4]
  Cytoplasmic levels of H3K79me1 and me2, ENL and AFF4: did not significantly reduce
Molm-13 cells [5]; 5 µM, 5-day incubation
  Apoptosis: did not cause significant apoptosis
Molm-13 cells [5]; 10 µM, 5 days
  Apoptosis: 44.2%
Molm-13 cells [5]; 15 µM, 5 days
  Apoptosis: 73.6%
Molm-13 cells [5]; short-term 2- or 3-day incubation
  Apoptosis: < 5%
Molm-13 cells [6]
  Differentiation: cells expressing CD14 and CD11b: significantly more cells expressing high levels of CD14 and CD11b
